The subject of experiment [1] is Candida albicans. Description: Candida growth effect without fluconazole – C. albicans CaCi-2, dry powder, counter-screen for antifungal drug resistance project, dose response (AID 488802). The format is functional, organism-based. For orientation: Counterscreens check selectivity or assay interference.
For experiment [2], the system named is Candida albicans. Kind of experiment: fluconazole-resistant Candida strain growth inhibitors – CaCi-8 strain, dry powder, set 4, dose response (AID 488950). The format is functional, organism-based.
In experiment [3] the test system is Candida albicans. Kind of experiment: C. albicans growth inhibition with fluconazole – CaCi-2 strain, Alamar Blue, dry powder, set 4, dose response (AID 488943). The format is functional, organism-based.
The test system of experiment [4] is Candida albicans. Kind of experiment: antifungal activity against resistant Candida strain – CaCi-8, fluconazole, Alamar Blue, dry powder, dose response (AID 488807). The format is functional, organism-based. (Resazurin is reduced to fluorescent resorufin, in cell work by metabolically active cells.)
In experiment [5] the target is G-protein coupled receptor 55 (Homo sapiens, UniProt Q9Y2T6). Description: selective activators of receptor GPR55 – imaging, U2OS cells, beta-arrestin-GFP redistribution, primary screen (AID 1961). Format: functional.
Experiment [6] concerns the target T1, Hexokinase HKDC1 (Homo sapiens, UniProt Q2TB90).
T1 sequence (Q2TB90 whole entry): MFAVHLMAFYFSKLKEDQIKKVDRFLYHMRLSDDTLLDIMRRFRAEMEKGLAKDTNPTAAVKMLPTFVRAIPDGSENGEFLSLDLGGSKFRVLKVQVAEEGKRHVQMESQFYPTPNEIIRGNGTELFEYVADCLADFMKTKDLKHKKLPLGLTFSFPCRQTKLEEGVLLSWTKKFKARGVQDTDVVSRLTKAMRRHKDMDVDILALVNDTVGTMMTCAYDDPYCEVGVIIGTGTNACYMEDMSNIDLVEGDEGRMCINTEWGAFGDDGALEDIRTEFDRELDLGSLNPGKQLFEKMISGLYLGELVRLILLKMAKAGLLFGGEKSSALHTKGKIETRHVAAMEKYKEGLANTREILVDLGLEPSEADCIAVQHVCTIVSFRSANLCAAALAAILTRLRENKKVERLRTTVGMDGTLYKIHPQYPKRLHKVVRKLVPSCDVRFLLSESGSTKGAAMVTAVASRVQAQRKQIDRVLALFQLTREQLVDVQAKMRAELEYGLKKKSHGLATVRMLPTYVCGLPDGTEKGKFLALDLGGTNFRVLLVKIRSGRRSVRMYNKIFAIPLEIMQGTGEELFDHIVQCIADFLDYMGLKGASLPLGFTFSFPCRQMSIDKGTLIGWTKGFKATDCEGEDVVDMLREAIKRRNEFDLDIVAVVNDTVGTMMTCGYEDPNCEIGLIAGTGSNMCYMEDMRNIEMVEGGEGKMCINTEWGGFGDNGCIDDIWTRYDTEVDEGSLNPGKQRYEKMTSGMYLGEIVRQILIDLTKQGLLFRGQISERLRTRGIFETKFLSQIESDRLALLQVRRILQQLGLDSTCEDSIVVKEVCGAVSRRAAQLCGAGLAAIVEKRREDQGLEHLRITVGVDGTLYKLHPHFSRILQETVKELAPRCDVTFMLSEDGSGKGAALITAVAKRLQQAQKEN
Description: SAR analysis of small molecule inhibitors of hexokinase domain containing I (HKDC1). [Related pubchem assays (depositor defined):AID493160, AID493190]. The format is functional.

Experiment [7] deals with Hexokinase-1 (Homo sapiens, UniProt P19367). Kind of experiment: SAR analysis of small molecule inhibitors of hexokinase domain containing I (HKDC1) in the hexokinase 1 selectivity assay. [Related pubchem assays (depositor defined):AID493160, AID493190]. Format: functional.
Experiment [8] concerns the target T2, Dual specificity protein phosphatase 3 (Homo sapiens, UniProt P51452). Description: VHR1 phosphatase inhibitors, primary screen, biochemical, absorbance, uHTS (AID 1654).
In experiment [9] the target is T3, Apoptotic protease-activating factor 1 (Homo sapiens, UniProt O14727).
T3 sequence (O14727 whole entry): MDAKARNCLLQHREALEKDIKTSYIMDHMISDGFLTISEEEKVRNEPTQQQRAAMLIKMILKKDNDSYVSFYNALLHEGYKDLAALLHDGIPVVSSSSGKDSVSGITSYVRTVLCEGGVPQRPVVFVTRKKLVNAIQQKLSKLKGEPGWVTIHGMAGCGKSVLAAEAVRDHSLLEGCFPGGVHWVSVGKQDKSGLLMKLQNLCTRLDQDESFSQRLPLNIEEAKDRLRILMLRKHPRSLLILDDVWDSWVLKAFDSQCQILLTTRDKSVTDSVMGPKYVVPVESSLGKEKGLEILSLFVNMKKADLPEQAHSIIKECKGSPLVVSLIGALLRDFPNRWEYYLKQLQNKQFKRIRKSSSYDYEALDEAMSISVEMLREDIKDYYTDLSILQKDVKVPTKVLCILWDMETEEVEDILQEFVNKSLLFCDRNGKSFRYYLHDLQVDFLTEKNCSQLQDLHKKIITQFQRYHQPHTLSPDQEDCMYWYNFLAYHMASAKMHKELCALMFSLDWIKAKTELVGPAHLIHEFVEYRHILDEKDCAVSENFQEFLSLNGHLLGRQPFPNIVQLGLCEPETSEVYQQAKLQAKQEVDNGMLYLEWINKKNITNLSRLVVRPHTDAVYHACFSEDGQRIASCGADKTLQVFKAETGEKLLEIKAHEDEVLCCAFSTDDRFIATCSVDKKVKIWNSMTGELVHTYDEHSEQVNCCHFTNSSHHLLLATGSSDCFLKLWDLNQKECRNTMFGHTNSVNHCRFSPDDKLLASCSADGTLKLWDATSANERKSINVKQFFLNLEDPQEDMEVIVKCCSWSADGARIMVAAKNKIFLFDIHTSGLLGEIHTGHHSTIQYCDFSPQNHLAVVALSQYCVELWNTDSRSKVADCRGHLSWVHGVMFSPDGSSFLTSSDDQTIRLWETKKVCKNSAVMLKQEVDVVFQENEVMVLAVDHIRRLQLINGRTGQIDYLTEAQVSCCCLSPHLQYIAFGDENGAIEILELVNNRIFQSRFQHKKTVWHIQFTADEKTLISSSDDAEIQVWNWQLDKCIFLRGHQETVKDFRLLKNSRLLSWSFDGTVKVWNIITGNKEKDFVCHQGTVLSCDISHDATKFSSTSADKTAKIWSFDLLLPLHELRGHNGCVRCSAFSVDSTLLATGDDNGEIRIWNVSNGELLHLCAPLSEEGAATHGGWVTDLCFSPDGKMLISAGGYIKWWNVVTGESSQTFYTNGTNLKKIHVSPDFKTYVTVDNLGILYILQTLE
Description: activation of Apaf-1 mediated apoptosis – fluorescent, uHTS hits, dose response (AID 588554). Format: functional.

Experiment [10] concerns the target T4, Voltage-gated N-type calcium channel alpha-1B subunit/Amyloid beta A4 precursor protein-binding family A member 1 (Homo sapiens, UniProt Q00975+Q02410). Format: protein assay.
In experiment [11] the target is Eukaryotic translation initiation factor 4E (Mus musculus, UniProt P63073). Kind of experiment: blockers of eIF4G binding by eIF4E – biochemical, TR-FRET, dose response (AID 855).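 Also: potency for disrupting eIF4E binding to eIF4GI seen as loss of FRET.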 The format is functional. In general terms: Time-resolved FRET reads energy transfer from a long-lived donor to a nearby acceptor.
The target of experiment [12] is T5, Dual specificity protein phosphatase 6 (Rattus norvegicus, UniProt Q64346).
T5 sequence (Q64346 whole entry): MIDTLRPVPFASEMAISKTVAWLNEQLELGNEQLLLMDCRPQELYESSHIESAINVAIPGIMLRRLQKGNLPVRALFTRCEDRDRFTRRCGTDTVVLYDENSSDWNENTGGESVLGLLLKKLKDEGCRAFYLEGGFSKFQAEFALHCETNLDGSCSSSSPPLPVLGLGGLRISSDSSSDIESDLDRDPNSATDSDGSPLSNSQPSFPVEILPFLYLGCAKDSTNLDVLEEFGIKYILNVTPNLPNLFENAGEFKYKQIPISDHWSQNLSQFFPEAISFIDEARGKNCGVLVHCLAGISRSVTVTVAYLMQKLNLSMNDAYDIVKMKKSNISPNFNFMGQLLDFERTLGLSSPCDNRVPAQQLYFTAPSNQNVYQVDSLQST
Kind of experiment: inhibition of rat DUSP6 enzyme activity – biochemical, in vitro, primary screen (AID 425).

Experiment [13] concerns the target T6, Type-1 angiotensin II receptor (Homo sapiens, UniProt P30556).
T6 sequence (P30556 whole entry): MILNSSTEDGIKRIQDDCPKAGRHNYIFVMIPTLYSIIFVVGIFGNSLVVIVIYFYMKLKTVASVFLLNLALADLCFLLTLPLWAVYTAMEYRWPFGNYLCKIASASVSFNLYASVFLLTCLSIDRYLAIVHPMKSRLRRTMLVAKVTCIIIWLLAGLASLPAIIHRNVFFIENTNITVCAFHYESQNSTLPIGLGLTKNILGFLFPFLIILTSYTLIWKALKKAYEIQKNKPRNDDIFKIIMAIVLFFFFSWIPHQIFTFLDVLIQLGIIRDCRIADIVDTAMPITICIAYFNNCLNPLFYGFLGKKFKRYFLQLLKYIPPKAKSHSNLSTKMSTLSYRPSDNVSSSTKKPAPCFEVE
Description: antagonism of angiotensin II type 1 receptor – cell-based, uHTS hits, selectivity assay for APJ receptor antagonist project, dose response (AID 463214).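 Also: antagonist potency against angiotensin II stimulated AT1 response.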 Format: functional.

In experiment [14] the target is Polyadenylate-binding protein 1 (Homo sapiens, UniProt P11940). Kind of experiment: blockers of PABP interaction with poly(A) – biochemical, fluorescence polarization, […] (AID 2014).
The target of experiment [15] is Beta-galactosidase (Escherichia coli, UniProt Q8VNN2). Description: PubChem AID 485352. The format is functional.
Experiment [16] addresses T4, Voltage-gated N-type calcium channel alpha-1B subunit/Amyloid beta A4 precursor protein-binding family A member 1. The format is protein assay. This is another data set of the same source.
The target in experiment [17] is T2, Dual specificity protein phosphatase 3. Kind of experiment: VHR1 phosphatase inhibitors, biochemical (AID 1878).
Experiment [18] concerns the target Eukaryotic translation initiation factor 4H (Homo sapiens, UniProt Q15056). Kind of experiment: eIF4H binding inhibition – biochemical, uHTS, fluorescence polarization, translation initiation inhibitor project, primary screen (AID 2012).
For experiment [19], the target named is Beta-2 adrenergic receptor (Homo sapiens, UniProt P07550). Kind of experiment: ADRB2 activation measured by internalization – cell-based, FAP fluorogen, flow cytometry, cherry pick 1, dose response (AID 588763). The format is functional.
Experiment [20] concerns HEK293. Description: HEK293T cell viability loss, resazurin readout – resazurin fluorescence, cytotoxicity control for NF-kB activator project, SAR follow-up (AID 493251). The format is functional, cell-based. The note with it: Homo sapiens.
In experiment [21] the test system is HEK293. Description: SAR Analysis of small molecule inhibitors of B-cell specific antigen receptor-induced NF-kB activation in a HEK-293T cell line using a luminescence assay - Set 2. [Related pubchem assays (depositor defined):AID435022, AID435025, AID489021]. The conditions noted are these: Homo sapiens. Format: functional, cell-based.
For experiment [22], the system named is Jurkat. Kind of experiment: SAR Analysis of small molecule inhibitors of […] specific antigen receptor-induced NF-kB activation in a Jurkat cell line using a luminescence assay - Set 3. [Related pubchem assays (depositor defined):AID435022, AID435025, AID465]. The note with it: Homo sapiens. The format is functional, cell-based.

The source made the active and inactive calls.

The term AC50 denotes the concentration at which the activity in the assay is half-maximal. Broadly, the EC50 is the concentration that produces a half-maximal response. Broadly, the IC50 is the point on the concentration scale where inhibition reaches its midpoint.

T2 sequence (P51452 whole entry): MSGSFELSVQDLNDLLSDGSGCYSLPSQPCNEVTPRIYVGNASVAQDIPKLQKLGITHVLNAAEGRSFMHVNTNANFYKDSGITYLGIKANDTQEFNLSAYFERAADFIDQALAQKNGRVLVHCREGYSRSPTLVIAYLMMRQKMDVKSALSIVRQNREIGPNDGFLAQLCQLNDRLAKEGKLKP
T4 sequence (Q00975 whole entry): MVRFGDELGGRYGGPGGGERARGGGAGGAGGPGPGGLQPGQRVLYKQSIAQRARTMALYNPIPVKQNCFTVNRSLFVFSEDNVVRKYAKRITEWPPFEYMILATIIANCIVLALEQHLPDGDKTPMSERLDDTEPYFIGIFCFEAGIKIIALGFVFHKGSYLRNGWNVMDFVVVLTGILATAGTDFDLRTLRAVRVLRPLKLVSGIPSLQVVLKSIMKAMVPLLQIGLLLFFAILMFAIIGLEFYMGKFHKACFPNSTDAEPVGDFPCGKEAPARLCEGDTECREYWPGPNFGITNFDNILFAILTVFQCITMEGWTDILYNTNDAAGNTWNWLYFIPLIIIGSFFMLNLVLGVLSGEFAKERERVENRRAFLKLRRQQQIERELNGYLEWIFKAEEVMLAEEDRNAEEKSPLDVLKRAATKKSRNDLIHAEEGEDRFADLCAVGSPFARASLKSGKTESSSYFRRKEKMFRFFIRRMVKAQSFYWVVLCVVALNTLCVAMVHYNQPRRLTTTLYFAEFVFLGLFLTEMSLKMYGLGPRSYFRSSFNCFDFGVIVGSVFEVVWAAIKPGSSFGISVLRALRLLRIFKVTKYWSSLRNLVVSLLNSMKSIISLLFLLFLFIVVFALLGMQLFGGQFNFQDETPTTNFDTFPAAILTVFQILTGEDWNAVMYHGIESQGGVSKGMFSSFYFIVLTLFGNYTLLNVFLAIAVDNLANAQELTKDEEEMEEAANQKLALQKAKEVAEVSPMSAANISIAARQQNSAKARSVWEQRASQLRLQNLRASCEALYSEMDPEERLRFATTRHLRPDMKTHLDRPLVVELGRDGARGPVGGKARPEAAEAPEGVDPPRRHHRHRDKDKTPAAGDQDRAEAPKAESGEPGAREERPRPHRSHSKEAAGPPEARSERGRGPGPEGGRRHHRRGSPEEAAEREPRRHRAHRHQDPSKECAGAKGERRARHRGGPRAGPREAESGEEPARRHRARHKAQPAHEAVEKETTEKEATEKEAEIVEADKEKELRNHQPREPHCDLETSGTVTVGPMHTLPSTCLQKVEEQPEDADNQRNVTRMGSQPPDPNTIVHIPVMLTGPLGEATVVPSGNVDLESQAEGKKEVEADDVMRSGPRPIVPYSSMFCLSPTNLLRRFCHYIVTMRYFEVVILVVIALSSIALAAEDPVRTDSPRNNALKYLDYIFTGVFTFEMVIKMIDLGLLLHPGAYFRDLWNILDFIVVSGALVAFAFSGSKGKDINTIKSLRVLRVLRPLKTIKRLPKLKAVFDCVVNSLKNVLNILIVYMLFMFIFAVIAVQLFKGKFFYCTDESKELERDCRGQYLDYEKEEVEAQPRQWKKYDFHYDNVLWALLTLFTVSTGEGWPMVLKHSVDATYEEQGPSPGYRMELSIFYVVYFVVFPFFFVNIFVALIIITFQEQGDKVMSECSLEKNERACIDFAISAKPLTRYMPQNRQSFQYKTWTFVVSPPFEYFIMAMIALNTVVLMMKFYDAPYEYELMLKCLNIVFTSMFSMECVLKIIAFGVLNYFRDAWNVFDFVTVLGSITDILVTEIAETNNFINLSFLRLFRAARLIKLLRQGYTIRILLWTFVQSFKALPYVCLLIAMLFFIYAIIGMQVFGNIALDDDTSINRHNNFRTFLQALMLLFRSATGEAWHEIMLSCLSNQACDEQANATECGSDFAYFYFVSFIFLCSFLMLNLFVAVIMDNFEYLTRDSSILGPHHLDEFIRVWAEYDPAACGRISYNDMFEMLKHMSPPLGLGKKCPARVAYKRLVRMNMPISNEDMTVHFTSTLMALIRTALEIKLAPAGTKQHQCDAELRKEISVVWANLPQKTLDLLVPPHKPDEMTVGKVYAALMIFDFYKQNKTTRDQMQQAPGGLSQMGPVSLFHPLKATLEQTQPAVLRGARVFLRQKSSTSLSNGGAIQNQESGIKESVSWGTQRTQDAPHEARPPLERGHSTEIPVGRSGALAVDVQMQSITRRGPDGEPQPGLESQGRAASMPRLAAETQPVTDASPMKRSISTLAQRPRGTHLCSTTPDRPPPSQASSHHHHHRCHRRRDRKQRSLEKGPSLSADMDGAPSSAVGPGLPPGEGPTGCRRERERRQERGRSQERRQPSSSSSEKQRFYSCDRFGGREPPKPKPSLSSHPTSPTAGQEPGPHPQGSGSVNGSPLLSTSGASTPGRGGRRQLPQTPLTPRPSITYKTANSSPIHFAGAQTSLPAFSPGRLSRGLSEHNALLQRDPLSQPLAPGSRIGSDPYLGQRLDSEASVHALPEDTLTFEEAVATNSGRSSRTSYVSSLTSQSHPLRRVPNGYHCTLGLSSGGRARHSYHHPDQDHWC
T4 sequence (Q02410 whole entry): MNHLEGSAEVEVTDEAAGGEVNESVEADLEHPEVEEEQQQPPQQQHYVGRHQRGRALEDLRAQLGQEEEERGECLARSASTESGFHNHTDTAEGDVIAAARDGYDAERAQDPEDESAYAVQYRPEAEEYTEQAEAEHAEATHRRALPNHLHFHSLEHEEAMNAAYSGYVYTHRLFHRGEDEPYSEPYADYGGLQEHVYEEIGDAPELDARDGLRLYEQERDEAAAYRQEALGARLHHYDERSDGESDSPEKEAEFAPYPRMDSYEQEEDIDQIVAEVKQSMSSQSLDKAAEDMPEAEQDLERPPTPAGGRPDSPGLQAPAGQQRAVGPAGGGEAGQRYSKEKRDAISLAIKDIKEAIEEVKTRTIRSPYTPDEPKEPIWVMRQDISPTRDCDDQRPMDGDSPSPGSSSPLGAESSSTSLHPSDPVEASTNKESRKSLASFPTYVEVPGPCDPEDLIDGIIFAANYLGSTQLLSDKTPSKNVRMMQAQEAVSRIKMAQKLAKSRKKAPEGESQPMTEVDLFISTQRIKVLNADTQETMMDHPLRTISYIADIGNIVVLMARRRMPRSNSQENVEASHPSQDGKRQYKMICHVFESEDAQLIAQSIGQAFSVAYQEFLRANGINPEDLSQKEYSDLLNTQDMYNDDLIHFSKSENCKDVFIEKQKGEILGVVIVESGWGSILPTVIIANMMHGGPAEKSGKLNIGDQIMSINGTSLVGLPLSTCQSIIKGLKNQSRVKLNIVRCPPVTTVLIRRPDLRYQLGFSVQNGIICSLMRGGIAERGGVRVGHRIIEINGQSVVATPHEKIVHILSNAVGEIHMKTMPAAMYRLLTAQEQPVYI
Beta-galactosidase, sequence (Q8VNN2 whole entry): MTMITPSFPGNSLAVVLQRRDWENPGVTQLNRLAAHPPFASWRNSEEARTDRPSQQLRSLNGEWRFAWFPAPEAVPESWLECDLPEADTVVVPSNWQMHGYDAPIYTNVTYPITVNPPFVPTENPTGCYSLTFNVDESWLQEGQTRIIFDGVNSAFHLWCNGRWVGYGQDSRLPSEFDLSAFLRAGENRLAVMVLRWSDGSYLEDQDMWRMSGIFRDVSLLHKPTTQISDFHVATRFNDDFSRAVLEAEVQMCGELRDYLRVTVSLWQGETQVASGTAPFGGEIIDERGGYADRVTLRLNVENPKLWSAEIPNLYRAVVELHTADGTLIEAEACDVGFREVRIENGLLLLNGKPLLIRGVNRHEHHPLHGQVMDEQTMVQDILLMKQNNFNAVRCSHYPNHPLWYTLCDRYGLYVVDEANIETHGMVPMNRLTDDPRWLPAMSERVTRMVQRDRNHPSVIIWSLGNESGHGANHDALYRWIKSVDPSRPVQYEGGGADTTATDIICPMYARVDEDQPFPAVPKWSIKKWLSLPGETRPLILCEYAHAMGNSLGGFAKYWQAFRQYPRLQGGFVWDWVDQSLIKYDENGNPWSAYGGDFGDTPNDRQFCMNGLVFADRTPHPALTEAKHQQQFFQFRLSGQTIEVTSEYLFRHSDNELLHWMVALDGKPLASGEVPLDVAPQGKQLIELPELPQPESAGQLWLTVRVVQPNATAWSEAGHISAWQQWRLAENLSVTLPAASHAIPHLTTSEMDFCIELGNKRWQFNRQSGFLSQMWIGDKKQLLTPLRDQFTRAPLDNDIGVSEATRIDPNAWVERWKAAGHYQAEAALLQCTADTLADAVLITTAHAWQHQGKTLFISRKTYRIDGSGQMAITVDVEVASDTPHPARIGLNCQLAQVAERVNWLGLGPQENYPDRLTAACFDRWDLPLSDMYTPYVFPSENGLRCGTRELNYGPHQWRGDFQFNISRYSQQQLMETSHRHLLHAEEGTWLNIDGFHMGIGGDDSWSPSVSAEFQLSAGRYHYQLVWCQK
G-protein coupled receptor 55, sequence (Q9Y2T6 whole entry): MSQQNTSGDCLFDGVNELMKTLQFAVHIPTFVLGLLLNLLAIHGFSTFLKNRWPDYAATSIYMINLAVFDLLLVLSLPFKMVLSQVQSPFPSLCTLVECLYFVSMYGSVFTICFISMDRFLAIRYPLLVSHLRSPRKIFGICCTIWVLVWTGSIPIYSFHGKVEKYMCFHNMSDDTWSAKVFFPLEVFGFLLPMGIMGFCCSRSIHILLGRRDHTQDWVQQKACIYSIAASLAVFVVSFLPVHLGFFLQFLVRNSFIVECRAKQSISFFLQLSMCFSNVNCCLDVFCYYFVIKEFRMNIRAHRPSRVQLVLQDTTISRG

Take `Cc1ccc(C(=O)N2CCN(c3ccnc4cc(Cl)ccc34)CC2)cc1`: the AC50 in [1] was 31.8 µM (active); in experiment [2], 1.33 µM (active); in [3], 1.78 µM (active); in experiment [4] it was 7.07 µM (active).
For `Cc1ccc(S(=O)(=O)N2CCOCC2)cc1NC(=O)CSc1nnc2cc(C)c3ccccc3n12`, the EC50 in experiment [5] was 17.4 µM (inactive). For the same molecule, the IC50 in experiment [6] is 43.2 µM (inactive); in experiment [7], 50.3 µM (inactive).
With `COc1cc(/C=C2\SC(=O)N(c3cccc(Cl)c3)C2=O)cc([N+](=O)[O-])c1O`, the IC50 is 3.03 µM (active) in [8]; > 50 µM (inactive) in experiment [10]; 21.9 µM (active) in [11]; > 158 µM (not active) in [12]; 27.3 µM (not active) in experiment [13]; > 100 µM (inactive) in experiment [14]. The values for the half-inhibitory concentration (IC50) in experiment [16], in experiment [17] and in [18] were 3.5 µM (active), 2.21 µM (active) and 4.99 µM (active), respectively. Besides, the EC50 in [9] is 5.8 µM (active); in experiment [15] it was 30.8 µM (active).
With `CCCCN(C(=O)c1ccc(NC(=O)C(C)C)cc1)c1ccccc1`, the concentration for a half-maximal effect (EC50) in experiment [19] is 0.049 µM (active).
As to `COc1ccccc1NC(=O)CCc1nc(-c2ccc(C(C)(C)C)cc2)no1`, the IC50 is 56 µM (inactive) in [20], 0.44 µM (active) in [21] and 0.665 µM (active) in experiment [22].

The record behind these values is ChEMBL document CHEMBL1201862, “PubChem BioAssay data set” (2004).
